Test results as given in patent US20180237751A1, “METHOD FOR GENERATING BETA CELLS” (THE TRUSTEES OF COLUMBIA UNIVERSITY IN THE CITY OF NEW YORK, priority 2011, published 2018).

Legend:
Type in all cases: cell-based, human
[1] = tested on: GCK mutant iPS-derived beta-like cells; test: Insulin (C-peptide) secretion assay in vitro, GCK mutant beta-like cells; settings: 1 hour, identical to control cells
Description: Typically, cells were cultured in 12-well dishes. After 12 days of differentiation, cells were washed for 1 hour in CMRL medium. Cells were then incubated in 300 μl CMRL medium containing 5.6 mM glucose for 1 hour and the medium was collected. Subsequently, 300 μl CMRL medium containing 16.9 mM glucose or other secretagogues was used to treat cells for 1 hour, following which the medium was collected. For in vivo tests, mice were deprived of food overnight with ad libitium access to water. After 12-14 hours of fasting, capillary blood glucose concentrations were determined by tail vein bleed using an AlphaTRACK glucometer (Abbott). Venous blood samples were collected via the submandibular vein. Intraperitoneal glucose was then administered (1 mg/g body weight) and ½ hour later blood samples were obtained via the submandibular vein. Blood samples were kept at room temperature for 2 hours and serum was obtained by centrifuging blood samples at 4000 rpm for 15 min. C-peptide concentrations in medium or mouse serum were measure using an ultrasensitive human C-peptide ELISA kit according to manufacturer's instructions (Mercodia). […]
Typically, cells were cultured in 12-well dishes. […] After 12-14 hours of fasting, capillary blood glucose concentrations were determined by tail bleed using an AlphaTRACK glucometer (Abbott). […]

Wolfram beta cells [2] = test: In vitro insulin and glucagon secretion assay, Wolfram beta cells
Description: (§1) Wolfram and control iPSCs or fibroblasts were incubated with indicated dosages of thapsigargin (TG) or tunicamycin (TM) (Both were from Sigma) for 6 hours after an overnight starvation. 1 mM Sodium 4-phenylbutyrate (4PBA) (EMD Chemicals Inc.) was administrated one hour prior to and through TG or TM treatment. Cells were harvested and subjected to RNA and protein analysis. In vitro differentiated beta cells were treated with 10 nM TG for 12 hours, or 0.5 μg/ml TM for 6 hours with or without 1 mM 4PBA treatment one hour prior to and through TG or TM treatment. For long-term 4PBA treatment, cells were incubated with 1 mM 4PBA starting on day 9 of differentiation, when cells reached pancreatic endoderm stage, and maintained until day 15. Then cells were subjected to insulin secretion, RNA and protein analysis. RNA was isolated using RNAeasy plus kit (Qiagen). cDNA was generated by using RT kit (Promega). Primers for PCR analysis were as follows: XBP-1 for gel-imaging (Lee, Won et al.) forward 5′ […] 3′ (SEQ ID NO:1), reverse 5′ […] 3′ (SEQ ID NO:2); sXBP-1 for QPCR (Merquiol, Uzi et al. 2011) forward 5′ CTGAGTCCGCAGCAGGTG 3′(SEQ ID NO:3), reverse 5′ […] 3′ (SEQ ID NO:4); GRP78 forward 5′ […] 3′(SEQ ID NO:5), reverse 5′ […] 3′ (SEQ ID NO:6); Insulin forward 5′ […] 3′(SEQ ID NO:7), reverse 5′ CAATGCCACGCTTCTGC 3′(SEQ ID NO:8). GRP78 protein level was determined by western blot using mouse-anti GRP78 antibody (Santa Cruz, sc-166490).
(§2) Cells were cultured in 12-well dishes. After 14 days of differentiation, cells were washed for 1 hour in CMRL medium, then incubated in 300 μl CMRL medium containing 5.6 mM glucose for 1 hour and the medium was collected. After that, 300 μl CMRL medium containing 16.9 mM glucose, or 15 mM arginine, or 30 mM potassium, or 1 mM DBcAMP+16.9 mM glucose was used to treat cells for 1 hour and then the medium was collected. Human C-peptide concentration in the medium was measured by ultra-sensitive human C-peptide ELISA kit according to manufacturer's instructions (Mercodia). Glucagon levels in medium were measured by using Glucagon ELISA kit (ALPCO Diagnostics).

control beta cells [3] = test: In vitro insulin and glucagon secretion assay, control beta cells
Description: as §1, §2

Wolfram iPS cells = test: Unfolded protein response (UPR) analysis, Wolfram iPS cells and fibroblasts
Description: as §1

Wolfram beta cells [4] = test: UPR, insulin and proinsulin content and ER morphology in Wolfram beta cells
Description: (§3) Human ES or iPS cells were dissociated by Dispase (3-5 mins) and Accutase (5 mins, Sigma). Cells were suspended in human ES medium containing 10 μM Y27632, a ROCK inhibitor, and filtered through a 70 μm cell strainer. Then cells were seeded at a density of 800,000 cells/well in 12-well plates. After 1 or 2 days, when cells reached 80-90% confluence, differentiation was started. On Day 1: cells were briefly washed once with RPMI medium, then were treated with Activin A (100 ng/ml), Wnt3A (25 ng/ml) and 0.075 mM EGTA in RPMI medium. On day 2-3: cells were treated with Activin A (100 ng/ml) and 0.2% FBS in RPMI medium. On day 4-5: cells were treated with FGF10 (50 ng/ml), KAAD-cyclopamine (0.25 μM) and 2% FBS in RPMI medium. On day 6-8: cells were treated with FGF10 (50 ng/ml), KAAD-cyclopamine ([…] (2 μM) and LDN-193189 (250 nM), B27 in DMEM medium. On day 9-10: cells were treated with exendin-4 (50 ng/ml), SB431542 (2 μM) and B27 in CMRL medium. On day 11-12, cells were treated with T4 (thyroid hormone, 0.02 nM) and B27 in CMRL medium. After day 12, cells were incubated in CMRL medium with B27. Cells were analyzed between day 14 and day 16.
as §1
(§4) To determine Insulin or proinsulin content within the cell, differentiated cells were collected and lysed by M-PER protein extraction reagent (Thermo Scientific). Proinsulin and insulin contents were measured by using human proinsulin and insulin ELISA kits (Mercodia). Quantification of positively stained cells was analyzed using Celigo Cytometer system (Cyntellect), and flow cytometry analysis. To normalize insulin content to beta cell number, cultures were dissociated to single cells, and divided into three fractions: 20% of cells for cell number quantification, 40% for RNA analysis and 40% for ELISA assay to determine insulin content.
Differentiated beta cells were treated with or without 10 nM TG for 12 hours, and then fixed in 2.5% glutaraldehyde in 0.1 M Sorenson's buffer (pH 7.2) for one hour. Samples were processed and imaged by Dignostic Service, Department of Pathology and Cell Biology, Columbia University. Secretory granule structure and endoplasmic reticulum (ER) morphology were visually recognized. The number of granules was determined using ImageJ software.

control iPS cells = test: Unfolded protein response (UPR) analysis, control iPS cells; settings: 10 nM TG, 6 hour
Description: as §1, with “3′(SEQ ID NO:7), reverse 5′ CAATGCCACGCTTCTGC 3′(SEQ ID NO:8).” left out

control beta cells [5] = test: UPR, insulin and proinsulin content and ER morphology in control beta cells
Description: as §3
Wolfram and control iPSCs or fibroblasts were incubated with indicated dosages of thapsigargin (TG) or tunicamycin (TM) (Both were from Sigma) for 6 hours after an overnight starvation. 1 mM Sodium 4-phenylbutyrate (4PBA) (EMD Chemicals Inc.) was administrated one hour prior to and through TG or TM treatment. Cells were harvested and subjected to RNA and protein analysis. In vitro differentiated beta cells were treated with 10 nM TG for 12 hours, or 0.5 μg/ml TM for 6 hours with or without 1 mM 4PBA treatment one hour prior to and through TG or TM treatment. […] GRP78 protein level was determined by western blot using mouse-anti GRP78 antibody (Santa Cruz, sc-166490).
as §4
Differentiated beta cells were treated with or without 10 nM TG for 12 hours, and then fixed in 2.5% glutaraldehyde in 0.1 M Sorenson's buffer (pH 7.2) for one hour. […] The number of granules was determined using ImageJ software.

[6] = control cells, arginine stimulation, TG treatment
[7] = Wolfram beta cells, TG 10 nM, 12 hours

SMILES: COC(=O)C1=C(C)NC(C)=C([N+](=O)[O-])C1c1ccccc1C(F)(F)F (stereo not drawn) [Bay K8644]
- increase in C-peptide release ([1]; GCK^G299R/+ and GCK^G299R/hygro cells): 3-5 fold
- increase in C-peptide release ([1]; GCK^G299R/+ cells): 5 fold

SMILES: C/C=C(/C)C(=O)O[C@H]1C(C)=C2[C@H]([C@@H]1OC(=O)CCCCCCC)[C@@](C)(OC(C)=O)C[C@H](OC(=O)CCC)[C@@]1(O)[C@H]2OC(=O)[C@@]1(C)O [TG, thapsigargin]
- insulin secretion in response to 16.9 mM glucose (Wolfram beta cells [2]; TG treated Wolfram cells (10 nM, 12 hour)): failed to increase insulin secretion
- reduction of stimulated glucagon secretion (Wolfram beta cells [2]; WFS1 cells, arginine stimulation, TG treatment): 24%
- reduction of stimulated insulin secretion (Wolfram beta cells [2]; WFS1 mutant cells, arginine stimulation, TG treatment): 43%
- response to DBcAMP (C-peptide secretion) (Wolfram beta cells [2]; Wolfram beta cells treated with TG, 2.6 without TG): 1.2 fold
- insulin-secretion in response to potassium (Wolfram beta cells [2]; Wolfram beta cells treated with TG, 3.9 without TG): 2.2 fold
- fold increase of C-peptide in the medium in response to arginine (Wolfram beta cells [2]; Wolfram beta cells treated with TG, 4.0 without TG): 2.3 fold
- increase of insulin output in response to 16.9 mM glucose (control beta cells [3]; TG treated control beta cells (10 nM, 12 hour)): 1.6 fold
- reduction of stimulated glucagon secretion (control beta cells [3]; [6]): 28%
- reduction of stimulated insulin secretion (control beta cells [3]; [6]): −3%
- increase of GRP78 mRNA (Wolfram iPS cells; Wolfram cells, 10 nM TG, 6 hour): 4 fold
- GRP78 mRNA level (Wolfram iPS cells; stem cells, increasing concentration of TG, 6 hours): dose-dependent increase
- proinsulin to insulin ratio (Wolfram beta cells [4]; Wolfram beta cells challenged with TG, ~0.55 without TG): 0.73
- ER morphology (TEM) (Wolfram beta cells [4]; Wolfram beta cells, 12 hours of 10 nM TG): greatly dilated
- reduction of insulin production at the mRNA level (Wolfram beta cells [4]; [7]): 46%
- reduction of insulin production at the protein level (Wolfram beta cells [4]; [7]): 31%
- increase of GRP78 mRNA (control iPS cells): 2 fold
- proinsulin to insulin ratio (control beta cells [5]; control beta cells challenged with TG, ~0.47 without TG): 0.51
- ER morphology (TEM) (control beta cells [5]; control cells, 12 hours of 10 nM TG): remained unaffected
- production of insulin (control beta cells [5]; control cells, TG 10 nM, 12 hours): unaffected
